Assay results reported in PubChem BioAssay AID588343 (Broad Institute, 2011).
Several values for one entry are separate records, joined by “and”; a condition that tells them apart may be missing. Identical values can stand only once. Inconclusive results are not listed.

Test system: HEK293 LMP1 TES2 NF-kB luciferase reporter, 16 h
Assay: inhibitors of LMP1-driven NF-kB reporter, dose response, cell-based, HEK293, luciferase, cherry-pick (AID 588343);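 also: potency of compounds lowering the induced NF-kB luciferase signal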

Row | Structure (SMILES) | AC50
1 | Cc1ccc(C(=O)Nc2cccc(C(F)(F)F)c2)cc1NC(=O)c1ccno1 | 0.816 µM and 5.4 µM
2 | CCN1CCN(Cc2ccc(NC(=O)c3ccc(C)c(NC(=O)c4cccc5[nH]ccc45)c3)cc2C(F)(F)F)CC1 | 0.418 µM and 0.146 µM
3 | Nc1ccn([C@@H]2O[C@H](CO)[C@@H](O)[C@@H]2O)c(=O)n1 | 13.2 µM
4 | COc1ccc(O)c2c(=O)c3c(OC)cc4c(c3oc12)C1C=COC1O4 (stereo unspecified) | 0.698 µM
5 | Nc1ccn([C@@H]2O[C@H](CO)[C@@H](O)C2O)c(=O)n1 (stereo partly specified) | 4.97 µM
6 | CCN1CCN(Cc2ccc(NC(=O)c3ccc(C)c(NC(=O)N4CCNC4=O)c3)cc2C(F)(F)F)CC1 | 0.484 µM and 1.06 µM and 0.977 µM
